Where two headings read alike, the source gives them in different places.
Assays:
gel-filtered platelets = test: In vitro inhibition of thrombin-induced gel-filtered platelet aggregation; type: cell-based; conditions: human gel-filtered platelets, agonist thrombin 50 μL of 1 unit/mL, read-out: Thrmb IC50 (Thrombin-induced aggregation of gel-filtered platelets)
Procedure: In Vitro Inhibition of Thrombin-Induced Gel-Filtered Platelet Aggregation Assay
The percentage of platelet aggregation is calculated as an increase in light transmission of compound-treated platelet concentrate vs. control-treated platelet concentrate. Human blood is obtained from drug free, normal donors in tubes containing 0.13M sodium citrate. Platelet rich plasma (PRP) is collected by centrifugation of whole blood at 200×g for 10 min at 25° C. The PRP (5 mL) is gel filtered through Sepharose 2B (bed volume 50 mL), and the platelet count is adjusted to 2×10^7 platelets per sample. The following constituents are added to a siliconized cuvette: concentrated platelet filtrate and Tyrode's buffer (0.14M NaCl, 0.0027M KCl, 0.012M NaHCO3, 0.76 mM Na2HPO4, 0.0055M glucose, 2 mg/mL BSA and 5.0 mM HEPES @ pH 7.4) in an amount equal to 350 μL 50 μL of 20 mM calcium and 50 μL of the test compound. Aggregation is monitored in a BIODATA aggregometer for the 3 min following the addition of agonist (thrombin 50 μL of 1 unit/mL).
(§1) Table 7 contains IC50 values (μM) of the compounds in a thrombin receptor binding assay, and IC50 values (μM) against platelet aggregation stimulated by thrombin.

[1] = molecular target: T1, thrombin receptor (PAR-1) (Homo sapiens, UniProt P25116); test: In vitro thrombin receptor binding assay (CHRF membranes); conditions: tritiated 721-40 radioligand, read-out: Bndg IC50 (Thrombin receptor binding)
T1 construct: CHRF membranes (Jones, Biochim. Biophys. Acta 1992, 1136, 272) are thawed from −70° C; endogenous in cells; host or cells: CHRF cell membranes
T1 sequence (P25116 22-425): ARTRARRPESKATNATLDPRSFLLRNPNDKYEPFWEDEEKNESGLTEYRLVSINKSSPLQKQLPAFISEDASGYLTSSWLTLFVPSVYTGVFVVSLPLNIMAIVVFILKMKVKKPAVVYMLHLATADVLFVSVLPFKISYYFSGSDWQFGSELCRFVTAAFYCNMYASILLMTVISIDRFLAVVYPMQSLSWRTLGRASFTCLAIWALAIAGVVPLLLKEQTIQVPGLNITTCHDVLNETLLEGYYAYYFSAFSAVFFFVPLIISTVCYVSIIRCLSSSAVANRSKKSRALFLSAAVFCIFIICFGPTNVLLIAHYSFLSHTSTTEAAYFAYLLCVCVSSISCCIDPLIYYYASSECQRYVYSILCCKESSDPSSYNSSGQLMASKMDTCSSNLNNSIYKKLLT
Procedure: In Vitro Thrombin Receptor Binding Assay
CHRF membranes (Jones, Biochim. Biophys. Acta 1992, 1136, 272) are thawed from −70° C., centrifuged at maximum speed for 5 min, washed twice with binding buffer (50 mM HEPES containing 5 mM MgCl2 and 0.1% BSA), and re-suspended in binding buffer (25 μg/[…]). 100 μL of membranes are added to the 24-Wallac plates and delivered to the Tomtech apparatus. In a typical experiment, 6 μL of samples (from a 125 μg/mL intermediary plate, 20% DMSO) and 44 μL buffer are delivered to the plates (final conc. of compounds is 3.7 μg/mL, 0.6% DMSO). Similarly, 6 μL 20% DMSO and 44 μL buffer are delivered to both column 1 (NSB) and column 12 (TB). 10 μL Ser-pFPhe-Har-Leu-Har-Lys-Tyr-NH2 (721–40; 500 μM in deionized water) is added to column 1. 50 μL tritiated 721–40 (specific activity 46 Ci/mmol) is added to all the wells. The plates are mixed well for 20 seconds, incubated for 30 min,and then harvested with 10 mM HEPES/138 mM NaCl using the Skatron harvester. The filters (GF/C Brandel FPXLR 296) are presoaked 3 h in 0.5% polyethylenimine in HEPES/0.1M N-acetylglucosamine) are set in saran wrap and dried for 3 min in the microwave, and placed in sample bags (Wallac 1450-432). 4.5 mL scintillation fluid (Wallac, Betaplate Scint 1205-440) is added. The bags are sealed, placed in filter cassettes (Wallac 1450-104), and analyzed on the microbeta counter.
as §1

SMILES | IC50 (gel-filtered platelets; Platelet) | IC50 [1] | IC50 (gel-filtered platelets)
N=C(N)NCCC[C@H](NC(=O)[C@H](Cc1cccs1)NC(=O)Nc1ccc2c(CN3CCCC3)cn(Cc3ccc(F)cc3)c2c1)C(=O)NCc1ccccc1 [Compound 28] | 13800 nM | 4100 nM | –
NCC[C@H](NC(=O)[C@H](Cc1ccc(F)c(F)c1)NC(=O)Nc1ccc2c(CN3CCCC3)cn(Cc3c(Cl)cccc3Cl)c2c1)C(=O)NCCc1c[nH]cn1 [Compound 142] | 1900 nM | 480 nM | –
CSCC[C@H](NC(=O)[C@H](Cc1ccc(F)c(F)c1)NC(=O)Nc1ccc2c(CN3CCCC3)cn(Cc3c(Cl)cccc3Cl)c2c1)C(=O)NCCN [Compound 143] | 290 nM | 20 nM | –
NCC[C@H](NC(=O)[C@H](Cc1ccc(F)c(F)c1)NC(=O)Nc1cccc2c1c(CN1CCCC1)cn2Cc1c(Cl)cccc1Cl)C(=O)NCCN1CCCC1 [Compound 166] | 40300 nM | 2000 nM | –
NC[C@H](NC(=O)[C@H](Cc1ccc(Cl)cc1)NC(=O)Nc1ccc2c(CN3CCCC3)cn(Cc3c(Cl)cccc3Cl)c2c1)C(=O)NCc1ccccc1 [Compound 79] | 1300 nM | 170 nM | –
CCSC[C@H](NC(=O)[C@H](Cc1ccc(Cl)cc1)NC(=O)Nc1ccc2c(CN3CCCC3)cn(Cc3c(Cl)cccc3Cl)c2c1)C(=O)NCCN [Compound 149] | 1200 nM | 150 nM | –
CN(Cc1cn(Cc2c(Cl)cccc2Cl)c2cc(NC(=O)N[C@@H](Cc3ccc(Cl)cc3)C(=O)N[C@@H](CCCN)C(=O)NC3Cc4ccccc4C3)ccc12)CC1OCCO1 [Compound 122] | 3500 nM | 10500 nM | –
NCC[C@H](NC(=O)[C@H](Cc1ccc2ccccc2c1)NC(=O)Nc1ccc2c(CN3CCCC3)cn(Cc3c(Cl)cccc3Cl)c2c1)C(=O)NCc1ccccc1 [Compound 129] | 860 nM | 2500 nM | –
CC(=O)NCCCC[C@H](NC(=O)[C@H](Cc1ccc(F)c(F)c1)NC(=O)Nc1ccc2c(CN3CCCC3)cn(Cc3c(Cl)cccc3Cl)c2c1)C(=O)NCc1ccccc1 [Compound 71] | 550 nM | 3000 nM | –
O=C(Nc1ccc2c(CN3CCCC3)cn(Cc3c(Cl)cccc3Cl)c2c1)N[C@@H](Cc1ccc(F)c(F)c1)C(=O)N[C@@H](CCCCNC(=O)c1cccnc1)C(=O)NCc1ccccc1 [Compound 68] | 4700 nM | 6500 nM | –
COc1ccc(C[C@H](NC(=O)Nc2ccc3c(CN4CCCC4)cn(Cc4cccc(C)c4)c3c2)C(=O)N[C@@H](CCCNC(=N)N)C(=O)NCC2CCCCC2)cc1 [Compound 9] | 2500 nM | 10400 nM | –
COc1ccc(C[C@H](NC(=O)Nc2ccc3c(CN4CCCC4)cn(Cc4c(Cl)cccc4Cl)c3c2)C(=O)N[C@@H](CCCNC(=N)N)C(=O)NCc2ccccc2)cc1 [Compound 14] | 490 nM | 1400 nM | –
NCC[C@H](NC(=O)[C@H](Cc1ccc(F)c(F)c1)NC(=O)Nc1cccc2c1c(CN1CCCC1)cn2Cc1c(Cl)cccc1Cl)C(=O)NCc1ccccc1 [Compound 165] | 4800 nM | 49600 nM | –
CC(C)[C@H](NC(=O)[C@H](Cc1ccc(Cl)cc1)NC(=O)Nc1ccc2c(CN3CCCC3)cn(Cc3c(Cl)cccc3Cl)c2c1)C(=O)NCCN [Compound 148] | 1400 nM | 140 nM | –
N=C(N)NCCC[C@H](NC(=O)[C@H](Cc1ccc([N+](=O)[O-])cc1)NC(=O)Nc1ccc2c(CN3CCCC3)cn(Cc3ccc(F)cc3)c2c1)C(=O)NCc1ccccc1 [Compound 49] | 6100 nM | 1000 nM | –
Cc1ccccc1Cn1cc(CN2CCCC2)c2ccc(NC(=O)N[C@@H](Cc3c(F)c(F)c(F)c(F)c3F)C(=O)N[C@@H](CCCNC(=N)N)C(=O)NCc3ccccc3)cc21 [Compound 50] | 800 nM | 7600 nM | –

SMILES | IC50 (gel-filtered platelets; Platelet) | IC50 [1] | IC50 (gel-filtered platelets)
N=C(N)NCCC[C@@H](NC(=O)[C@H](Cc1ccc(F)c(F)c1)NC(=O)Nc1ccc2c(CN3CCCC3)cn(Cc3c(Cl)cccc3Cl)c2c1)C(=O)NCc1ccccc1 [Compound 69] | – | 620 nM | 310 nM
CN(C)CCNC(=O)[C@H](CCCN)NC(=O)[C@H](Cc1ccc(F)c(F)c1)NC(=O)Nc1ccc2c(CN3CCCC3)cn(Cc3c(Cl)cccc3Cl)c2c1 [Compound 126] | 460 nM | 1500 nM | –
CN(C)CCC[C@H](NC(=O)[C@H](Cc1ccc(F)c(F)c1)NC(=O)Nc1ccc2c(CN3CCCC3)cn(Cc3c(Cl)cccc3Cl)c2c1)C(=O)NCc1ccccc1 [Compound 100] | 600 nM | 1300 nM | –
CN1CCN(C(=O)[C@H](CCCN)NC(=O)[C@H](Cc2ccc(F)c(F)c2)NC(=O)Nc2ccc3c(CN4CCCC4)cn(Cc4c(Cl)cccc4Cl)c3c2)CC1 [Compound 114] | 2400 nM | 260 nM | –
Cc1ccccc1Cn1cc(CN2CCCC2)c2ccc(NC(=O)N[C@@H](Cc3ccc(OCc4ccccc4)cc3)C(=O)N[C@@H](CCCN=C(N)N)C(=O)NCc3ccccc3)cc21 [Compound 36] | 6800 nM | 16700 nM | –
N=C(N)NCCC[C@H](NC(=O)[C@H](Cc1cccc(F)c1)NC(=O)Nc1ccc2c(CN3CCCC3)cn(Cc3c(Cl)cccc3Cl)c2c1)C(=O)NCc1ccc(S(N)(=O)=O)cc1 [Compound 92] | 1300 nM | 1000 nM | –
N=C(N)NCCC[C@H](NC(=O)[C@H](Cc1ccc(Br)cc1)NC(=O)Nc1ccc2c(CN3CCCCC3)cn(Cc3c(Cl)cccc3Cl)c2c1)C(=O)NCc1ccccc1 [Compound 63] | 700 nM | 130 nM | –
NCC[C@H](NC(=O)[C@H](Cc1ccc(F)c(F)c1)NC(=O)Nc1cccc2c(CN3CCCC3)cn(Cc3c(Cl)cccc3Cl)c12)C(=O)NCc1ccccc1 [Compound 167] | 8500 nM | 67600 nM | –
Cc1ccccc1Cn1cc(CN2CCCC2)c2ccc(NC(=O)N[C@@H](Cc3ccc(-c4ccccc4)cc3)C(=O)N[C@@H](CCCNC(=N)N)C(=O)NCc3ccccc3)cc21 [Compound 39] | 3500 nM | 21500 nM | –
Cc1ccccc1Cn1cc(CN2CCCC2)c2ccc(NC(=O)N[C@@H](Cc3cccc(C(F)(F)F)c3)C(=O)N[C@@H](CCCNC(=N)N)C(=O)NCc3ccccc3)cc21 [Compound 54] | 500 nM | 16000 nM | –
N=C(N)NCCC[C@H](NC(=O)[C@@H](Cc1ccc(F)c(F)c1)NC(=O)Nc1ccc2c(CN3CCCC3)cn(Cc3c(Cl)cccc3Cl)c2c1)C(=O)NCc1ccccc1 [Compound 84] | – | 3200 nM | 14900 nM
CC(=O)NCCC[C@H](NC(=O)[C@H](Cc1ccc(F)c(F)c1)NC(=O)Nc1ccc2c(CN3CCCC3)cn(Cc3c(Cl)cccc3Cl)c2c1)C(=O)NCc1ccccc1 [Compound 94] | 10000 nM | 810 nM | –
COc1ccc(C[C@H](NC(=O)Nc2ccc3c(CNC4CCCC4)cn(Cc4ccc(F)cc4)c3c2)C(=O)N[C@@H](CCCNC(=N)N)C(=O)NCc2ccccc2)cc1 [Compound 3] | 21400 nM | 10700 nM | –
COc1ccc(C[C@H](NC(=O)Nc2ccc3c(CN4CCCC4)cn(Cc4ccc(C)cc4)c3c2)C(=O)N[C@@H](CCCN=C(N)N)C(=O)NCc2ccccc2)cc1 [Compound 2] | 7800 nM | 33600 nM | –
NCCC[C@H](NC(=O)[C@H](Cc1ccc(Cl)cc1)NC(=O)Nc1ccc2c(CN3CCCC3)cn(Cc3c(Cl)cccc3Cl)c2c1)C(=O)NCc1ccccc1Cl [Compound 99] | 740 nM | 1400 nM | –
NCC[C@H](NC(=O)[C@H](Cc1cccnc1)NC(=O)Nc1ccc2c(CN3CCCC3)cn(Cc3c(Cl)cccc3Cl)c2c1)C(=O)NCc1ccccc1 [Compound 130] | 27800 nM | 4800 nM | –
